Data reported in ChEMBL document CHEMBL1201862, “PubChem BioAssay data set” (2004).
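Step 1: Grow cells in 96-well plates. Step 2: Expose to compound for 48 hours at 5 concentrations. Step 3: Interpolate endpoints linearly; if unreached, use highest concentration. At the GI50, growth is halved.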 Active and inactive are the calls of the source. Rule as the data show it: active = GI50 up to about 1.1 µM and inactive = higher.

How the values were obtained:
Assay in all cases: DTP human tumour cell line panel, 48 h
MOLT-4 = test system: MOLT-4
Hs-578T = test system: Hs-578T
HT-29 = test system: HT-29
OVCAR-8 = test system: OVCAR-8
NCI-H23 = test system: NCI-H23
MCF7 = test system: MCF7
HOP-92 = test system: HOP-92
HL-60 = test system: HL-60
Malme-3M = test system: Malme-3M
SF-295 = test system: SF-295
UACC-257 = test system: UACC-257
SNB-19 = test system: SNB-19
SK-MEL-2 = test system: SK-MEL-2
UACC-62 = test system: UACC-62
DU-145 = test system: DU-145
CCRF-CEM = test system: CCRF-CEM
HOP-62 = test system: HOP-62
HCT-116 = test system: HCT-116
ACHN = test system: ACHN
CAKI-1 = test system: CAKI-1
UO-31 = test system: UO-31
M14 = test system: M14
PC-3 = test system: PC-3
MDA-MB-231 = test system: MDA-MB-231
BT-549 = test system: BT-549
U-251 = test system: U-251
OVCAR-5 = test system: OVCAR-5
A498 = test system: A498
EKVX = test system: EKVX
A549 = test system: A549
SNB-75 = test system: SNB-75
OVCAR-4 = test system: OVCAR-4
786-0 = test system: 786-0
LOX IMVI = test system: LOX IMVI
T47D = test system: T47D
KM12 = test system: KM12
OVCAR-3 = test system: OVCAR-3
TK-10 = test system: TK-10
MDA-MB-435 = test system: MDA-MB-435
SK-MEL-5 = test system: SK-MEL-5
NCI-H226 = test system: NCI-H226
IGROV-1 = test system: IGROV-1
NCI-H460 = test system: NCI-H460
MDA-N = test system: MDA-N
SN12C = test system: SN12C
SK-MEL-28 = test system: SK-MEL-28
NCI-H522 = test system: NCI-H522
HCT-15 = test system: HCT-15
SF-539 = test system: SF-539
COLO 205 = test system: COLO 205
SW-620 = test system: SW-620
SK-OV-3 = test system: SK-OV-3
SF-268 = test system: SF-268
NCI/ADR-RES = test system: NCI/ADR-RES
K562 = test system: K562
RXF 393 = test system: RXF 393
SR = test system: SR
RPMI-8226 = test system: RPMI-8226

Cc1cc2ncc3c(=O)n(NS(=O)(=O)c4ccc(N)cc4)ccc3n2n1
GI50 (MOLT-4): > 100 µM (inactive) | GI50 (Hs-578T): > 100 µM (inactive) | GI50 (HT-29): > 100 µM (inactive) | GI50 (OVCAR-8): > 100 µM (inactive) | GI50 (NCI-H23): > 100 µM (inactive) | GI50 (MCF7): > 100 µM (inactive) | GI50 (HOP-92): 54.2 µM (inactive) | GI50 (HL-60): > 100 µM (inactive) | GI50 (Malme-3M): 36.3 µM (inactive) | GI50 (SF-295): > 100 µM (inactive) | GI50 (UACC-257): > 100 µM (inactive) | GI50 (SNB-19): > 100 µM (inactive) | GI50 (SK-MEL-2): > 100 µM (inactive) | GI50 (UACC-62): > 100 µM (inactive) | GI50 (DU-145): > 100 µM (inactive) | GI50 (CCRF-CEM): > 100 µM (inactive) | GI50 (HOP-62): > 100 µM (inactive) | GI50 (HCT-116): > 100 µM (inactive) | GI50 (ACHN): > 100 µM (inactive) | GI50 (CAKI-1): > 100 µM (inactive) | GI50 (UO-31): > 100 µM (inactive) | GI50 (M14): > 100 µM (inactive) | GI50 (PC-3): > 100 µM (inactive) | GI50 (MDA-MB-231): > 100 µM (inactive) | GI50 (BT-549): > 100 µM (inactive) | GI50 (U-251): > 100 µM (inactive) | GI50 (OVCAR-5): > 100 µM (inactive) | GI50 (A498): 70.8 µM (inactive) | GI50 (EKVX): > 100 µM (inactive) | GI50 (A549): > 100 µM (inactive) | GI50 (SNB-75): > 100 µM (inactive) | GI50 (OVCAR-4): > 100 µM (inactive) | GI50 (786-0): > 100 µM (inactive) | GI50 (LOX IMVI): > 100 µM (inactive) | GI50 (T47D): > 100 µM (inactive) | GI50 (KM12): > 100 µM (inactive) | GI50 (OVCAR-3): > 100 µM (inactive) | GI50 (TK-10): > 100 µM (inactive) | GI50 (MDA-MB-435): > 100 µM (inactive) | GI50 (SK-MEL-5): > 100 µM (inactive) | GI50 (NCI-H226): > 100 µM (inactive) | GI50 (IGROV-1): > 100 µM (inactive) | GI50 (NCI-H460): > 100 µM (inactive) | GI50 (MDA-N): > 100 µM (inactive) | GI50 (SN12C): > 100 µM (inactive) | GI50 (SK-MEL-28): > 100 µM (inactive) | GI50 (NCI-H522): > 100 µM (inactive) | GI50 (HCT-15): > 100 µM | GI50 (SF-539): > 100 µM (inactive) | GI50 (COLO 205): > 100 µM (inactive) | GI50 (SW-620): > 100 µM (inactive) | GI50 (SK-OV-3): > 100 µM (inactive) | GI50 (SF-268): > 100 µM (inactive)

Cc1ccc(S(=O)(=O)NC(CCC(=O)NN)C(=O)NN)cc1 (stereo not given)
GI50 (MOLT-4): > 100 µM (inactive) | GI50 (Hs-578T): > 100 µM (inactive) | GI50 (HT-29): > 100 µM (inactive) | GI50 (NCI/ADR-RES): > 100 µM (inactive) | GI50 (OVCAR-8): > 100 µM (inactive) | GI50 (NCI-H23): > 100 µM (inactive) | GI50 (MCF7): > 100 µM (inactive) | GI50 (HOP-92): > 100 µM (inactive) | GI50 (HL-60): > 100 µM (inactive) | GI50 (Malme-3M): > 100 µM (inactive) | GI50 (SF-295): > 100 µM (inactive) | GI50 (UACC-257): > 100 µM (inactive) | GI50 (K562): > 100 µM (inactive) | GI50 (SNB-19): > 100 µM (inactive) | GI50 (SK-MEL-2): > 100 µM (inactive) | GI50 (UACC-62): > 100 µM (inactive) | GI50 (CCRF-CEM): > 100 µM (inactive) | GI50 (HOP-62): > 100 µM (inactive) | GI50 (HCT-116): > 100 µM (inactive) | GI50 (ACHN): > 100 µM (inactive) | GI50 (CAKI-1): > 100 µM (inactive) | GI50 (UO-31): > 100 µM (inactive) | GI50 (M14): > 100 µM (inactive) | GI50 (PC-3): > 100 µM (inactive) | GI50 (MDA-MB-231): > 100 µM (inactive) | GI50 (BT-549): > 100 µM (inactive) | GI50 (U-251): > 100 µM (inactive) | GI50 (OVCAR-5): > 100 µM (inactive) | GI50 (A498): > 100 µM (inactive) | GI50 (EKVX): > 100 µM (inactive) | GI50 (A549): > 100 µM (inactive) | GI50 (RXF 393): > 100 µM (inactive) | GI50 (SR): > 100 µM (inactive) | GI50 (SNB-75): > 100 µM (inactive) | GI50 (OVCAR-4): 16.5 µM (inactive) | GI50 (786-0): > 100 µM (inactive) | GI50 (LOX IMVI): > 100 µM (inactive) | GI50 (T47D): > 100 µM (inactive) | GI50 (KM12): > 100 µM (inactive) | GI50 (OVCAR-3): > 100 µM (inactive) | GI50 (TK-10): > 100 µM (inactive) | GI50 (MDA-MB-435): > 100 µM (inactive) | GI50 (SK-MEL-5): > 100 µM (inactive) | GI50 (NCI-H226): > 100 µM (inactive) | GI50 (IGROV-1): > 100 µM (inactive) | GI50 (NCI-H460): 0.067 µM (active) | GI50 (MDA-N): > 100 µM (inactive) | GI50 (NCI-H522): > 100 µM (inactive) | GI50 (HCT-15): 0.304 µM | GI50 (RPMI-8226): > 100 µM (inactive) | GI50 (SF-539): > 100 µM (inactive) | GI50 (COLO 205): > 100 µM (inactive) | GI50 (SW-620): > 100 µM (inactive) | GI50 (SK-OV-3): > 100 µM (inactive) | GI50 (SF-268): > 100 µM (inactive)

CC(C)(Oc1ccc(Cl)cc1)C(=O)N(C(=O)N1CCCCC1)c1ccccc1
GI50 (MOLT-4): 3.41 µM (inactive) | GI50 (Hs-578T): 16.9 µM (inactive) | GI50 (HT-29): 8.34 µM (inactive) | GI50 (NCI/ADR-RES): 14.5 µM (inactive) | GI50 (OVCAR-8): 14.1 µM (inactive) | GI50 (NCI-H23): 14.2 µM (inactive) | GI50 (MCF7): 19.6 µM (inactive) | GI50 (HL-60): 2.16 µM (inactive) | GI50 (Malme-3M): 12 µM (inactive) | GI50 (K562): 8.17 µM (inactive) | GI50 (SNB-19): 16.8 µM (inactive) | GI50 (SK-MEL-2): 13.1 µM (inactive) | GI50 (UACC-62): 13.2 µM (inactive) | GI50 (DU-145): 14.7 µM (inactive) | GI50 (CCRF-CEM): 16.7 µM (inactive) | GI50 (HCT-116): 5.32 µM (inactive) | GI50 (ACHN): 14.9 µM (inactive) | GI50 (CAKI-1): 14.4 µM (inactive) | GI50 (UO-31): 10.8 µM (inactive) | GI50 (M14): 17.5 µM (inactive) | GI50 (PC-3): 3.4 µM (inactive) | GI50 (MDA-MB-231): 10.6 µM (inactive) | GI50 (BT-549): 15.4 µM (inactive) | GI50 (U-251): 14.2 µM (inactive) | GI50 (OVCAR-5): 12 µM (inactive) | GI50 (A498): 17 µM (inactive) | GI50 (EKVX): 2.45 µM (inactive) | GI50 (RXF 393): 18 µM (inactive) | GI50 (786-0): 13.4 µM (inactive) | GI50 (LOX IMVI): 11.4 µM (inactive) | GI50 (T47D): 0.891 µM (active) | GI50 (KM12): 5.87 µM (inactive) | GI50 (OVCAR-3): 23.9 µM (inactive) | GI50 (MDA-MB-435): 16 µM (inactive) | GI50 (SK-MEL-5): 10.4 µM (inactive) | GI50 (NCI-H226): 17.6 µM (inactive) | GI50 (IGROV-1): 5.09 µM (inactive) | GI50 (MDA-N): 24.5 µM (inactive) | GI50 (SN12C): 17 µM (inactive) | GI50 (SK-MEL-28): 15.2 µM (inactive) | GI50 (HCT-15): 6.28 µM | GI50 (RPMI-8226): 7.55 µM (inactive) | GI50 (SF-539): 8.34 µM (inactive) | GI50 (COLO 205): 17.4 µM (inactive) | GI50 (SW-620): 12.9 µM (inactive) | GI50 (SK-OV-3): 19.8 µM (inactive) | GI50 (SF-268): 20.1 µM (inactive)
